Assay results as given in BindingDB's records for doi:10.1021/jm970265x (Glaxo Wellcome Research and Development, 1997).
pKi: −log10 of the molar value. Several values for one entry are separate records, joined by “and”; a condition that tells them apart may be missing. Equal entries are not always repeated.

Target: T1, Gastrin/cholecystokinin type B receptor (Homo sapiens, UniProt P32239)
T1 sequence (P32239 whole entry): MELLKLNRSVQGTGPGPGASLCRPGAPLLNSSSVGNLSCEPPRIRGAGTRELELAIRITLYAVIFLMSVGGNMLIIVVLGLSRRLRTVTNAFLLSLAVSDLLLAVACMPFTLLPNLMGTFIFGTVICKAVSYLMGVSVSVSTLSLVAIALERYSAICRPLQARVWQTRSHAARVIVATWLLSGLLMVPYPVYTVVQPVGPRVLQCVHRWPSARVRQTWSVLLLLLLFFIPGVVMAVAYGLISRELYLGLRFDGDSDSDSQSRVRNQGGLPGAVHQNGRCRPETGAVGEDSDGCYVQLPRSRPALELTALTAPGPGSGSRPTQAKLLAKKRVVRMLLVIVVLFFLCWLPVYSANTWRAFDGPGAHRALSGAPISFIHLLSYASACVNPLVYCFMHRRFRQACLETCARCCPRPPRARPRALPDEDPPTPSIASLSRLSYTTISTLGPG

SMILES	pKi
CC(C)N(C(=O)CN1C(=O)C(Cc2n[nH]c3ccccc23)C(=O)N(c2ccccc2)c2ccccc21)c1ccc(C(F)(F)F)cc1 (stereo not drawn) [CCK-A Agonist 39]	5.78
CC(C)N(C(=O)CN1C(=O)C(Cc2n[nH]c3ccccc23)C(=O)N(c2ccccc2)c2ccccc21)c1ccc2c(c1)OCO2 (stereo not drawn) [CCK-A Agonist 42]	6.14
COc1ccc(N(C(=O)CN2C(=O)C(Cc3n[nH]c4c(F)cccc34)C(=O)N(c3ccccc3)c3ccccc32)C(C)C)cc1 (stereo not drawn) [CCK-A Agonist 34]	5.98
CC(C)N(C(=O)CN1C(=O)C(Cc2n[nH]c3ccccc23)C(=O)N(c2ccccc2)c2ccccc21)c1ccc(F)cc1 (stereo not drawn) [CCK-A Agonist 38]	6.86 and 6.32
COc1cccc(N(C(=O)CN2C(=O)C(Cc3n[nH]c4ccccc34)C(=O)N(c3ccccc3)c3ccccc32)C(C)C)c1 (stereo not drawn) [CCK-A Agonist 40]	6.32 and 6.72
CC(C)N(C(=O)CN1C(=O)C(Cc2n[nH]c3ccccc23)C(=O)N(c2ccccc2)c2ccccc21)c1ccccc1 (stereo not drawn) [CCK-A Agonist 37]	7.06 and 6.75
CC(C)(C)N(C(=O)CN1C(=O)C(Cc2n[nH]c3ccccc23)C(=O)N(c2ccccc2)c2ccccc21)c1ccccc1 (stereo not drawn) [CCK-A Agonist 45]	6.05
COc1ccccc1N(C(=O)CN1C(=O)C(Cc2n[nH]c3ccccc23)C(=O)N(c2ccccc2)c2ccccc21)C(C)C (stereo not drawn) [CCK-A Agonist 41]	6.89
